Measurements reported in the NIST ThermoML archive (doi:10.1021/je700152c).

Assay: molar heat capacity at constant pressure; xn = mol fraction of the nth substance listed
Settings: 101 kPa, Liquid, x1 = 0.37

CCCCn1cc[n+](C)c1.Cc1ccc(S(=O)(=O)[O-])cc1 [1-butyl-3-methylimidazolium tosylate] + O
Settings | molar heat capacity at constant pressure [J/K/mol]
78.74 K | 66.26
81.34 K | 67.77
83.37 K | 68.91
85.4 K | 70.17
87.43 K | 71.43
89.46 K | 72.69
91.5 K | 73.83
93.53 K | 75.09
95.58 K | 76.35
97.63 K | 77.49
99.68 K | 78.62
101.73 K | 79.76
103.78 K | 81.02
105.84 K | 82.16
107.9 K | 83.29
109.96 K | 84.43
112.02 K | 85.57
114.09 K | 86.7
116.17 K | 87.84
118.24 K | 88.97
120.32 K | 90.23
122.39 K | 91.37
124.47 K | 92.51
126.55 K | 93.64
128.64 K | 94.78
130.73 K | 96.04
132.81 K | 97.3
134.9 K | 98.31
136.98 K | 99.57
139.08 K | 100.71
141.17 K | 101.85
143.27 K | 103.11
145.36 K | 104.24
147.46 K | 105.38
149.56 K | 106.64
151.66 K | 107.78
153.77 K | 108.91
155.87 K | 110.17
157.98 K | 111.44
160.09 K | 112.57
162.2 K | 113.71
164.31 K | 114.97
166.42 K | 116.23
168.54 K | 117.37
170.66 K | 118.63
172.78 K | 119.89
174.9 K | 121.03
177.02 K | 122.29
179.14 K | 123.55
181.27 K | 124.94
183.39 K | 126.58
185.51 K | 128.6
187.64 K | 131.63
189.76 K | 138.07
191.84 K | 148.79
193.9 K | 159.02
195.93 K | 176.18
198 K | 179.59
200.12 K | 180.34
202.26 K | 181.1
204.39 K | 181.73
206.52 K | 182.24
208.65 K | 182.87
210.79 K | 183.5
212.93 K | 184.13
215.07 K | 184.63
217.23 K | 185.39
219.38 K | 185.9
221.54 K | 186.65
223.7 K | 187.28
225.87 K | 188.04
